Test results reported in ChEMBL document CHEMBL6074632, “Next-generation EGFR tyrosine kinase inhibitors to overcome C797S mutation in non-small cell lung cancer (2019-2024)” (RSC Med Chem, 2024).
Blank lines part the entries; values can stand above or below the compound they belong to.

Experiments:
[1] = Inhibition of EGFR L858R/T790M double mutant (unknown origin); parameters: species or system Homo sapiens
[2] = target: Epidermal growth factor receptor (Homo sapiens, UniProt P00533, C797S/L858R/T790M); assay: Inhibition of EGFR L858R/T790M/C797S mutant (unknown origin)
[3] = Antiproliferative activity against mouse BaF3 cells harboring EGFR L858R/T790M double mutant assessed as inhibition of cell growth
[4] = PROTAC activity at CRBN/EGFR L858R/T790M double mutant in human HCC827 cells assessed as induction of EGFR degradation; format: cell-based
[5] = target: von Hippel-Lindau disease tumor suppressor/Epidermal growth factor receptor (Homo sapiens, UniProt P00533+P40337, L858R); assay: PROTAC activity at VHL/EGFR L858R mutant in human NCI-H3255 cells assessed as induction of EGFR degradation incubated for 24 hrs by immunoblotting analysis; format: cell-based
[6] = test system: BaF3; assay: Antiproliferative activity against mouse BaF3 cells harboring EGFR C797S/T790M/del19 mutant assessed as growth inhibition incubated for 72 hrs by CellTiter-Glo assay; format: functional, cell-based; details: BaF3, 72 h
[7] = Antiproliferative activity against human NCI-H1975 cells harboring EGFR L858R/T790M double mutant assessed as inhibition of cell growth incubated for 72 hrs by CellTiter-Glo assay; format: functional, cell-based; details: NCI-H1975, 72 h
[8] = Oral bioavailability in rat; details: in vivo
[9] = Antiproliferative activity against human NCI-H1975 cells harboring EGFR L858R/T790M/C797S […] mutant assessed as inhibition of cell growth; format: functional, cell-based
[10] = Intrinsic clearance in human liver microsomes; format: ADME, Microsome
[11] = Intrinsic clearance in rat liver microsomes; format: ADME, Microsome
[12] = Intrinsic clearance in human hepatocytes; format: ADME, cell-based, Hepatocyte
[13] = test system: BaF3; assay: Antiproliferative activity against mouse BaF3 cells harboring EGFR L858R/T790M/C797S mutant assessed as growth inhibition incubated for 72 hrs by CellTiter-Glo assay; format: functional, cell-based; details: BaF3, 72 h
[14] = target: Epidermal growth factor receptor (Homo sapiens, UniProt P00533); assay: Inhibition of wild type EGFR (unknown origin)
[15] = target: Epidermal growth factor receptor (Homo sapiens, UniProt P00533, C797S/EX19DEL/T790M); assay: Inhibition of EGFR C797S/T790M/Del19 mutant (unknown origin)
[16] = test system: NCI-H1975; assay: Antitumor activity against human NCI-H1975 cells xenografted in mouse model assessed as tumor growth inhibition at 40 mg/kg, po relative to control; format: functional; details: read-out: TGI
[17] = test system: NCI-H1975; assay: Antitumor activity against human NCI-H1975 cells xenografted in mouse model assessed as tumor growth inhibition at 80 mg/kg, po relative to control; format: functional; details: read-out: TGI

Chain of Epidermal growth factor receptor (Homo sapiens, UniProt P00533, C797S/L858R/T790M) (P00533 25-1210 T790M/C797S/L858R limits assumed): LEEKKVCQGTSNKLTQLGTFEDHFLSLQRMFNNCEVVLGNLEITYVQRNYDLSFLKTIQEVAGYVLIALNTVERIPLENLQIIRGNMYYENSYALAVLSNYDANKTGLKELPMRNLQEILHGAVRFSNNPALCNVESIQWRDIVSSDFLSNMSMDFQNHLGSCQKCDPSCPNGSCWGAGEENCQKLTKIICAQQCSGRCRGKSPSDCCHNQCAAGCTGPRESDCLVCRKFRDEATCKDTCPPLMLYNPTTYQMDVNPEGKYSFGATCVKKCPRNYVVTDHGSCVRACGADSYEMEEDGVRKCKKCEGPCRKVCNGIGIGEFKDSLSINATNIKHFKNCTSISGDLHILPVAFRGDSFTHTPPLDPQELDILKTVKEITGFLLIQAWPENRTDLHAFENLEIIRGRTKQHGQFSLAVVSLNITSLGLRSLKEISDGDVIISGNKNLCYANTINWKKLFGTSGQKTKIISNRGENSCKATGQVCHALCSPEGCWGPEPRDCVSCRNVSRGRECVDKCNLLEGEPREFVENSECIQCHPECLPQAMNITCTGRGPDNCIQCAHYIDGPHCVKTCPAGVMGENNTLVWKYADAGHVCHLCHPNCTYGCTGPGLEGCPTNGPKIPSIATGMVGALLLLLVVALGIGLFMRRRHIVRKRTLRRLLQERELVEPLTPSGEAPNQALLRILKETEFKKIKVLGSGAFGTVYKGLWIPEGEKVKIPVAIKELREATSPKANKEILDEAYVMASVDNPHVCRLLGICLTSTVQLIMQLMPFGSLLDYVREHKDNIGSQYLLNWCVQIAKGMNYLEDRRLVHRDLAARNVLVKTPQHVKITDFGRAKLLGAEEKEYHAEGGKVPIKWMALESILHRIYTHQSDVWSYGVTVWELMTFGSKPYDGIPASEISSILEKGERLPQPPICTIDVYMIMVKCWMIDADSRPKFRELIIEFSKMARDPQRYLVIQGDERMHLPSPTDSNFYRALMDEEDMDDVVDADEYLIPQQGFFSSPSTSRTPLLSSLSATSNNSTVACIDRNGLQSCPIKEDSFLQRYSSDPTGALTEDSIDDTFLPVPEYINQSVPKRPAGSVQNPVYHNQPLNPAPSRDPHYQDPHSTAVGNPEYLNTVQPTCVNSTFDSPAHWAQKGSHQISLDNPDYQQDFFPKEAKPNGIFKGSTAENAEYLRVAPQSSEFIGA
Chain of Epidermal growth factor receptor (Homo sapiens, UniProt P00533, C797S/EX19DEL/T790M) (P00533 whole entry, looked up, stated change not applied): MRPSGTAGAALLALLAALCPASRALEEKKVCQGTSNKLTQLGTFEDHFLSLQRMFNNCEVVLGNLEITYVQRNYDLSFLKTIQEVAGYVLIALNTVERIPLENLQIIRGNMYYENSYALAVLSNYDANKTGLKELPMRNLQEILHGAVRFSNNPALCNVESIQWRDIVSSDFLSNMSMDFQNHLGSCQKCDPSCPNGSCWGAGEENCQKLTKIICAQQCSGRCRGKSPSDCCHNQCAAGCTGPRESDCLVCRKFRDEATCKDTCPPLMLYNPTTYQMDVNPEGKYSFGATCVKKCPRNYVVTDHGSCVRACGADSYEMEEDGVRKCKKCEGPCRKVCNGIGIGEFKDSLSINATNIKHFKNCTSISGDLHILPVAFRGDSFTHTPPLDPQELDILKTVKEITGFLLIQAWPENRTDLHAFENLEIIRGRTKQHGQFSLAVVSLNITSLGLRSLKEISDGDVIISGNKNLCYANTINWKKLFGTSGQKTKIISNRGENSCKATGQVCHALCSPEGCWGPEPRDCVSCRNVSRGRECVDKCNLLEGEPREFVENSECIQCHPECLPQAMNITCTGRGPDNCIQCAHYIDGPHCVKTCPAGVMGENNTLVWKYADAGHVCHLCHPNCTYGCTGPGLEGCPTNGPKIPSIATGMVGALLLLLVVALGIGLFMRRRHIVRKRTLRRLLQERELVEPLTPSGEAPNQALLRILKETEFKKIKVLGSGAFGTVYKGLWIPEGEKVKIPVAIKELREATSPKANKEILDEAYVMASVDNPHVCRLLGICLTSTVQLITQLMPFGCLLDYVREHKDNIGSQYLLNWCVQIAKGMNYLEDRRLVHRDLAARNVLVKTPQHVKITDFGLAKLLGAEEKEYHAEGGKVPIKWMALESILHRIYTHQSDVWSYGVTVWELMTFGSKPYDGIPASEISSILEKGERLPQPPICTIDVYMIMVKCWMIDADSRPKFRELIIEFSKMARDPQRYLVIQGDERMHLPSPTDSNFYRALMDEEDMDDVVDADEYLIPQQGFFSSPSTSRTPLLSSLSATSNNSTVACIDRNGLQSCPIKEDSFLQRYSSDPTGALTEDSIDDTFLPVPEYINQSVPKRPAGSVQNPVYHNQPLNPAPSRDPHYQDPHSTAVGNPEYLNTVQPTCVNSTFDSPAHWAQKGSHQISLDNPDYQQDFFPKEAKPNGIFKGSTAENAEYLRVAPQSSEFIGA
Chain of Epidermal growth factor receptor (Homo sapiens, UniProt P00533) (P00533 whole entry): as the sequence (P00533 whole entry, looked up, stated change not applied) above
Chain of von Hippel-Lindau disease tumor suppressor/Epidermal growth factor receptor (P00533 25-1210 L858R limits assumed, stated change not applied): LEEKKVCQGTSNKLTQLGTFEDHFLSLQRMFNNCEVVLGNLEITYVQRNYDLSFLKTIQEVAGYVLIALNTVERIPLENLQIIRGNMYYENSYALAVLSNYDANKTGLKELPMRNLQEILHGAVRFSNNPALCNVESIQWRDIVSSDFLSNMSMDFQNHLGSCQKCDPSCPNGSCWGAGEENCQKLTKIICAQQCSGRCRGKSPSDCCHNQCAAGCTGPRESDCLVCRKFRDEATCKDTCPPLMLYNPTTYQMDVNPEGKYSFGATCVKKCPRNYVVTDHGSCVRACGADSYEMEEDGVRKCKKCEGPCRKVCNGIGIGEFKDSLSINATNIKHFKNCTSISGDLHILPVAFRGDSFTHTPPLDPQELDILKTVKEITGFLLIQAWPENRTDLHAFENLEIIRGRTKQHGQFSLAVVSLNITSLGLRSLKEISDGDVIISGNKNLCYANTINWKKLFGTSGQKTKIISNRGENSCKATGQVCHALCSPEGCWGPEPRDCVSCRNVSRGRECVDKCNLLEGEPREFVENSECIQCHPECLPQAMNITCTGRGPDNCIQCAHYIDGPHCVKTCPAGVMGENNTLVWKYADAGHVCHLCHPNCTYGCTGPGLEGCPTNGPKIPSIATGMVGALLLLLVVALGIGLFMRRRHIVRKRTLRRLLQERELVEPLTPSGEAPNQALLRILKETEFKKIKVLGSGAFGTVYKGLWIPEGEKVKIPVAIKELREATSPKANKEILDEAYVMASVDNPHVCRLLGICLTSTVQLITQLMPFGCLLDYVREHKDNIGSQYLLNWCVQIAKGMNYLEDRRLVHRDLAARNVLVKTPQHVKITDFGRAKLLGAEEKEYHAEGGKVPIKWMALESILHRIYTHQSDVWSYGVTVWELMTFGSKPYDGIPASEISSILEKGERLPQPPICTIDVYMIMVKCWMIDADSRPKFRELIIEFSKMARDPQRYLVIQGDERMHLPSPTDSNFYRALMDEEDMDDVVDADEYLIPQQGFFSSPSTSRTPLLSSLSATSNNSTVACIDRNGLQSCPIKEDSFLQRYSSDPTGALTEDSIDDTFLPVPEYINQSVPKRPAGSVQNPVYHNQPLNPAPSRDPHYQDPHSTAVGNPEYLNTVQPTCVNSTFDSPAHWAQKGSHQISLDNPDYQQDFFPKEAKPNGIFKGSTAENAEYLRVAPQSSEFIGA
Chain of von Hippel-Lindau disease tumor suppressor/Epidermal growth factor receptor (P40337 whole entry, stated change not applied): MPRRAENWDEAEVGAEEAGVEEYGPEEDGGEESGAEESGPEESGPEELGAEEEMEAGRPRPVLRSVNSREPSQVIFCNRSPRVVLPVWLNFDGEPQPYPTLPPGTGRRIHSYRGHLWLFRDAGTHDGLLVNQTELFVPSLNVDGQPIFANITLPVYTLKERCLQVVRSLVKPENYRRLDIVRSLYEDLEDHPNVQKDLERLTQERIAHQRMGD

IC50 [1]: 3 nM
Structure (SMILES): O=C(Nc1nccs1)C(c1cc(F)ccc1O)N1Cc2ccccc2C1=O (centres undefined)

IC50 [2]: 2.3 nM
Structure (SMILES): COc1cc2c(Nc3ccc(NC(=O)C(c4cc(F)ccc4F)N4Cc5ccccc5C4=O)cc3F)ncnc2cc1OCC1CCN(C)CC1 (centres undefined)

IC50 [3]: 96 nM
Structure (SMILES): O=C1CCC(N2C(=O)c3cccc(NCCOCCOCCOCCN4CCN(c5ccc(-c6ccc7c(c6)C(=O)N(C(C(=O)Nc6nccs6)c6ccccc6)C7)cn5)CC4)c3C2=O)C(=O)N1 (centres undefined)

Structure (SMILES): COc1cc2ncnc(Nc3ccc(F)c(Cl)c3)c2cc1OCCCN1CCN(CCC(=O)NCCCCCCCCOc2cccc3c2C(=O)N(C2CCC(=O)NC2=O)C3=O)CC1 (centres undefined)
DC50 [4]: 5 nM

Structure (SMILES): COc1cc(N2CCN(CCCCCCCC(=O)N[C@H](C(=O)N3C[C@H](O)C[C@H]3C(=O)N[C@@H](C)c3ccc(-c4scnc4C)cc3)C(C)(C)C)CC2)ccc1Nc1ncc(Cl)c(Nc2ccccc2P(C)(C)=O)n1
DC50 [5]: 8 nM

IC50 [6]: 26.8 nM
Structure (SMILES): COc1cc(N2CCC(N3CCN(C)CC3)CC2)c(C)cc1Nc1ncc(Br)c(Nc2ccc3nccnc3c2P(C)(C)=O)n1

Structure (SMILES): CC(C)c1cnc(N2CC(CS(C)(=O)=O)C2)c2cnc(Nc3ccnc(N4CC[C@@H](O)[C@@](C)(F)C4)n3)cc12
IC50 [7]: 4.8 nM | bioavailability [8]: 2%

Structure (SMILES): N#Cc1ccc(O)c(-c2nc(NCc3ncccn3)c3ccccc3n2)c1
IC50 [9]: 1200 nM

CLint [10]: 7.2 µL/min/mg | bioavailability [8]: 50% | CLint [11]: 43 µL/min/mg | CLint [12]: 41 µL/min/1e6 cells
Structure (SMILES): CC(C)c1ccc(N2C[C@H](CS(C)(=O)=O)[C@H]2C)c2cnc(Nc3ccnc(N4CC[C@@H](O)[C@@](C)(F)C4)n3)cc12
IC50 [7]: 1 nM

IC50 [1]: 0.063 nM
Structure (SMILES): CN1CCC(c2ccc(-c3ccc4c(c3)C(=O)N(C(C(=O)Nc3nccs3)c3cc(F)ccc3O)C4)cc2)CC1 (centres undefined)

Structure (SMILES): CC(C)c1ccc(N2CC(CS(C)(=O)=O)C2)c2cnc(Nc3ccnc(N4CC[C@@H](O)[C@@](C)(F)C4)n3)cc12
IC50 [7]: 2.7 nM | bioavailability [8]: 85%

IC50 [13]: 120 nM | IC50 [6]: 90 nM
Structure (SMILES): CN1CCN(c2ccc(Nc3ncc(Cl)c(Nc4ccccc4P(C)(C)=O)n3)cc2Br)CC1

IC50 [14]: 37100 nM | IC50 [15]: 1730 nM
Structure (SMILES): Oc1ccccc1-c1nc(NCN2CCOCC2)c2ccccc2n1

IC50 [14]: > 50000 nM | IC50 [15]: 4.84 nM
Structure (SMILES): Oc1ccccc1-c1nc(NCc2c[nH]cn2)c2ccccc2n1

IC50 [14]: > 50000 nM | IC50 [15]: 3.38 nM
Structure (SMILES): Cn1cnc(Nc2nc(-c3ccccc3O)nc3ccccc23)c1

IC50 [2]: 0.09 nM | IC50 [13]: 16 nM | IC50 [6]: 12 nM
Structure (SMILES): [2H]C([2H])([2H])c1cc(Nc2ncc(Br)c(Nc3ccccc3S(=O)(=O)C3CC3)n2)ccc1N1CCN(C([2H])([2H])[2H])CC1
inhibition in vivo at 40 mg/kg [16]: 75.1%

IC50 [2]: 440 nM
Structure (SMILES): Oc1ccc(Br)cc1-c1nc(NCc2ncccn2)c2ccccc2n1
IC50 [9]: 12600 nM

Structure (SMILES): Cc1cc(Nc2ncc(Br)c(Nc3ccccc3S(=O)(=O)C3CC3)n2)ccc1N1CCN(C)CC1
inhibition in vivo at 80 mg/kg [17]: 73.2%

Structure (SMILES): CO[C@@H]1CCN(c2nccc(Nc3cc4c(C(C)C)ccc(N5C[C@H](CS(C)(=O)=O)[C@H]5C)c4cn3)n2)C[C@@H]1F [TIGOZERTINIB]
IC50 [7]: 1.1 nM | bioavailability [8]: 48%
